Measurements reported in patent publication US20120015898A1, “COMPOUNDS AND METHODS FOR TREATMENT OF SICKLE CELL DISEASE OR COMPLICATIONS ASSOCIATED THEREWITH” (GlycoMimetics, Inc., priority 2007, published 2012).

Experiments:
[1] = system: sickle cell mice; experiment: TNFα-induced vaso-occlusive crisis in sickle cell mice, intravital microscopy of cremaster venules (prevention protocol); format: in vivo
Text: FIG. 6 is a schematic of the protocol for inducing a vaso-occlusive crisis (VOC) in sickle cell-affected mice and recording blood flow.
(§1) An animal model of sickle cell disease exists in fully chimeric mice constructed by bone marrow transplantation and expressing >97% human globin containing the β^S mutation. A vaso-occlusive crisis is induced by stimulation with TNFα and is monitored by observing and recording blood flow by intravital microscopy of the venules in the cremaster muscle.
(§2) Each mouse is prepared by cannulating the right carotid artery and by undergoing a tracheotomy to facilitate ventilation under anesthesia. Twenty (20) minutes prior to stimulation with TNFα, the cremaster muscle is gently exteriorized and the venules are set on a microscope stage for observation and recording of blood flow. Just prior to administration of TNFα and again prior to the recording of the venules (90 min later), Compound # 2 is administered through the cannulated carotid artery and data is obtained by monitoring blood flow and recording time of death.

[2] = system: sickle cell mice; experiment: Delayed treatment of VOC in sickle cell mice (treatment protocol); format: in vivo; conditions: control PBS
Protocol: FIG. 9 is a schematic of a sickle cell mouse model for use with both prevention and treatment protocols. The black arrows underneath Comp. #2 are for the prevention protocol. The gray arrow underneath Comp. #2 is for the treatment protocol. Recording is started at the 90 minute mark for the prevention protocol. Recording is started at the 120 minute mark for the treatment protocol.
as §1, §2

**Q.** For `CC1OC(OC2C(NC(=O)c3cc(O)nc(O)n3)CC(C(=O)NCCNC(=O)COCCOCC(=O)Nc3cccc(CNc4cc(S(=O)(=O)O)cc5cc(S(=O)(=O)O)cc(S(=O)(=O)O)c45)c3)CC2OC2OC(CO)C(O)C(O[C@@H](CC3CCCCC3)C(=O)O)C2OC(=O)c2ccccc2)C(O)C(O)C1O` (some centres unmarked) [Compound #2], which “blood flow in the sickle cell mouse” value ([1]; after stimulation with TNFα, compound given through cannulated carotid artery just prior to TNFα and again 90 min later, FIG. 7) is on record?
**A.** restoring blood flow to a velocity observed in normal mice

**Q.** What about the “adhesion of sickle red blood cells (RBC) to leukocytes” value ([1]; sickle cell mice, TNFα-induced vaso-occlusive crisis, FIG. 8) of the same compound?
**A.** significant inhibition of adhesion

**Q.** And the “adherent white blood cells (WBCs)” value ([2]; WBCs adherent to vascular endothelium, FIG. 11)?
**A.** significant reduction in the number of WBCs adherent to the vascular endothelium

**Q.** What about the blood flow rate ([2]; FIG. 10) of the same compound?
**A.** normalizes the rate of blood flow

**Q.** And the “interactions of sickle red blood cells (RBCS) with leukocytes” value ([2]; FIG. 12)?
**A.** dramatically reduces interactions of sickle RBCs with leukocytes
